The supplement of paper PMC10920090

Key:
MDA-MB-231 [1] = test: drug sensitivity score (DSS), cytotoxicity CellTox Green; higher = more cytotoxic; extreme values may be limits of the assay; settings: 72 h
MDA-MB-231 [2] = test: drug sensitivity score (DSS), cell viability CellTiter-Glo; higher = more sensitive; extreme values may be limits of the assay; settings: 72 h
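For drug sensitivity score (DSS), cytotoxicity CellTox Green in this document: DSS summarises each dose–response curve by combining IC50, EC50, maximal inhibition and efficacy across drug concentrations.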

SMILES	drug sensitivity score (MDA-MB-231 [1]; shRNA: shPPFIA1_1) [DSS]	drug sensitivity score (MDA-MB-231 [1]; shRNA: shScramble) [DSS]	drug sensitivity score (MDA-MB-231 [2]; shRNA: shPPFIA1_1) [DSS]	drug sensitivity score (MDA-MB-231 [2]; shRNA: shScramble) [DSS]
CC[C@@H]1C(=O)OC[C@@H]1Cc1cncn1C [Pilocarpine]	0	0	0	0
COc1cc2c(NC3CCN(C(C)C)CC3)nc(C3CCCCC3)nc2cc1OCCCN1CCCC1 [UNC0638]	7	6.8	8.3	6.3
C=CCNC1=C2C[C@@H](C)C[C@H](OC)[C@H](O)[C@@H](C)/C=C(\C)[C@H](OC(N)=O)[C@@H](OC)/C=C\C=C(/C)C(=O)NC(=CC1=O)C2=O [Tanespimycin]	2	3.1	6.7	12.3
Nc1nc(N)c2nc(-c3cccc(O)c3)c(-c3cccc(O)c3)nc2n1 [TG100-115]	0	0	5.7	19
COc1ccc(Cl)c(Nc2nc3ccccc3nc2NS(=O)(=O)c2cccc(NC(=O)C(C)(C)N)c2)c1 [Pilaralisib]	0.9	0	0	0.9
CN(C[C@@H]1COCCO1)S(=O)(=O)Nc1ccc2ccc3ncc(-c4cnn(C)c4)cc3c(=O)c2c1 [MK-2461]	0	0	0	3.6
COc1cc(Nc2ncc(F)c(Nc3ccc4c(n3)NC(=O)C(C)(C)O4)n2)cc(OC)c1OC [Tamatinib]	0.2	0	0	1.8
CCN(c1cc(-c2ccc(CN3CCOCC3)cc2)cc(C(=O)NCc2c(C)cc(C)[nH]c2=O)c1C)C1CCOCC1 [Tazemetostat]	0	0	1	0
O=C(NC[C@H](O)CN1CCc2ccccc2C1)c1cc(NC2COC2)ncn1	0	0	0.5	1.8
C[C@]12C=CC(=O)C=C1CC[C@@H]1[C@@H]2[C@@H](O)C[C@@]2(C)[C@H]1CC[C@]2(O)C(=O)CO [Prednisolone]	0	0	0	0
CN(C)CCN1C(=O)c2cccc3cc(N)cc(c23)C1=O [Amonafide]	1	2.5	3.5	8.2
CN1CC[C@@H](NC(=O)Nc2ccc(C#N)cc2)C[C@@H]1c1nc2ccccc2[nH]1 [Glasdegib]	0	0	0	0
CCCOc1ccn2c(C(C)=O)cc(-c3ccccc3S(C)(=O)=O)c2c1 [GSK2801]	0	0	0	0
O=c1[nH]c(=O)n([C@H]2C[C@H](O)[C@@H](CO)O2)cc1F [Floxuridine]	0	0.2	14.6	19.7
Cn1cc(C2=C(c3cn(C4CCN(Cc5ccccn5)CC4)c4ccccc34)C(=O)NC2=O)c2ccccc21 [Enzastaurin]	0	0	5.6	2.8
O=C(NOC[C@H](O)CO)c1ccc(F)c(F)c1Nc1ccc(I)cc1F	2	4.7	0	9.8

SMILES	drug sensitivity score (MDA-MB-231 [1]; shRNA: shPPFIA1_1) [DSS]	drug sensitivity score (MDA-MB-231 [1]; shRNA: shScramble) [DSS]	drug sensitivity score (MDA-MB-231 [2]; shRNA: shPPFIA1_1) [DSS]	drug sensitivity score (MDA-MB-231 [2]; shRNA: shScramble) [DSS]
CCC(C)(C)C(=O)O[C@H]1C[C@@H](C)C=C2C=C[C@H](C)[C@H](CC[C@@H]3C[C@@H](O)CC(=O)O3)[C@H]21 [Simvastatin]			0	2.8
COCC[n+]1c2c(n(Cc3cnccn3)c1C)C(=O)c1ccccc1C2=O [YM155]	20.5	34.6	24.1	33.4
CC(C)c1c(C(=O)Nc2ccccc2)c(-c2ccccc2)c(-c2ccc(F)cc2)n1CC[C@@H](O)C[C@@H](O)CC(=O)O [Atorvastatin]	2	0.6	2.5	7.3
O=C(O)CSc1cc(NS(=O)(=O)c2ccc(Br)cc2)c2ccccc2c1O [UMI-77]	8	18.7	3.2	10.8
CC(=O)OC[C@H]1O[C@@H]([S-])[C@H](OC(C)=O)[C@@H](OC(C)=O)[C@@H]1OC(C)=O.CCP(CC)CC.[Au+] [Auranofin]	0	0.4	3.2	4.2
Cn1c(CCCC(=O)O)nc2cc(N(CCCl)CCCl)ccc21 [Bendamustine]	0	0	0	0
COC(=O)c1ccc2c(c1)[nH]c1ncnc(NCCCN3CCCCC3)c12 [UM729]	0	0	0	0
CCN1CCN(Cc2ccc(Nc3ncc(F)c(-c4cc(F)c5nc(C)n(C(C)C)c5c4)n3)nc2)CC1 [Abemaciclib]	0.9	0	0.9	0
Nc1nc(Cl)nc2c1ncn2[C@H]1C[C@H](O)[C@@H](CO)O1 [Cladribine]	0	0	0	3.3
Cc1c(C(=O)Nc2ccc(N3C[C@@H](C)O[C@@H](C)C3)nc2)cccc1-c1ccc(OC(F)(F)F)cc1 [Sonidegib]	0	0	1.1	2.4
O=NN(CCCl)C(=O)NCCCl [Carmustine]	0	0	0	0
O=C(Cc1ccc(-c2ccc(OCCN3CCOCC3)cc2)cn1)NCc1ccccc1 [KX2-391]	5.5	1.8	2.1	8.2
CN1CCc2c(c3ccccc3n2Cc2ccc(C(=O)NO)cc2)C1 [Tubastatin A]	0.1	0	0	1
O=C(/C=C/c1cccc(S(=O)(=O)Nc2ccccc2)c1)NO [Belinostat]	14.9	8.1	8.7	10.2
CS(=O)(=O)OCCCCOS(C)(=O)=O [Busulfan]	0	0	0	0.2
